13 molecules from patent publication US20220081389A1, “AMIDE COMPOUNDS AND PREPARATION METHOD THEREFOR AND USE THEREOF” (CAC NANTONG CHEMICAL CO., LTD., priority 2019, published 2022) can be followed below.

A word on the mortality: it is the percentage killed.

Where two headings read alike, the source gives them in different places.

What all share (type): in vivo
For data set [1], the system named is Spodoptera frugiperda. Put plainly: Insecticidal activity test against Spodoptera frugiperda (leaf dip, maize seedlings). The conditions noted are these: for mortality at 1 ppm / mortality at 0.1 ppm: Spodoptera frugiperda, foliar; for mortality at 1 ppm: read-out: insecticidal activity (mortality of Spodoptera frugiperda); for Mortality (%) against Spodoptera frugiperda, 1 d / Mortality (%) against Spodoptera frugiperda, 2 d / Mortality (%) against Spodoptera frugiperda, 3 d: 0.1 ppm, leaf dip, 3rd-instar larvae; for Mortality (%) against Spodoptera frugiperda, 1 d: 1st day after treatment; for Mortality (%) against Spodoptera frugiperda, 2 d: 2nd day after treatment; for Mortality (%) against Spodoptera frugiperda, 3 d: 3rd day after treatment. The method, then: (§1) Various kinds of pests were tested with the compounds of this invention. Unless otherwise specified, the preparation method of samples and definition of the mortality rate of the insects in the embodiments and this invention are as follows: the preparation method of samples is to weigh 10 mg of the compound and dissolve it in 1 mL DMF to prepare 10,000 ppm mother liquid, which is diluted to necessary concentration by 0.05% Tween-80 water, respectively. The mortality rate is the mortality rate of pests under the test concentration, whose calculating formula is: mortality rate (%)=Number of dead pests/total pests*100
(§2) The leaf dip method was used to assay the insecticidal activity. Cut above ground part of fresh maize seedlings (about 10 cm). Dip the maize seedlings into the solution prepared with compound of this invention for 10 seconds and dry them in a cool environment. Then cut the dry maize seedlings into 3-5 cm leaf sections and put 3 leaf sections into each petri dish. Put ten of 3th-instar larvae of Spodoptera frugiperda into each dish, which was repeated by 3 times. Then the dishes were placed in an illumination incubator and incubated with 14 hL: 10 hD illumination at 25° C. Symptoms were investigated on the 1st, 2nd and 3rd day after treatment, and the mortality was calculated.

Data set [2] has as its system Mythimna separata. Put plainly: Insecticidal activity test against Mythimna separata (leaf dip, maize seedlings). The conditions noted are these: foliar; for mortality at 0.04 ppm: 3rd day after treatment, read-out: insecticidal activity (mortality of Mythimna separate). The method, then: as §1
as §2, with “Mythimna separatas” for “Spodoptera frugiperda”

Data set [3] concerns Chilo suppressalis. Put plainly: Insecticidal activity test against Chilo suppressalis (rice stem dip). The method, then:
as §1
The rice was cultivated in a plastic pot with a diameter of 9 cm and a height of 10 cm. When the rice grew to 25 cm, the aerial part of robust and consistent rice seedlings was selectively cut. Their leaves were removed and their stems of about 8 cm were kept for use. Pour the solution prepared with compound of this invention into the Petri dish (about 40 mL) and dip the rice stems into the solution for 10 seconds. Take rice stems out and dry them in a cool environment. Put a wet cotton ball at the bottom of finger-like glass tube and 5 rice stems in each tube. Put 10 of 3rd-instar larvae of Chilo suppressa into each tube, which was repeated by 3 times. Seal the tubes with black cotton cloth and tighten them with rubber band. The tubes were placed in a illumination incubator at 28° C. and incubated in the dark (incubated without light). The dead number of Chilo suppressalis was investigated 3 days after treatment. The mortality was calculated.

Data set [4] concerns Spodoptera litura. Briefly: Insecticidal activity test against Spodoptera litura (leaf dip, cabbage leaf discs). The conditions noted are these: foliar; for mortality at 0.4 ppm: 3rd day after treatment. As for the experimental part:
as §1
The leaf dip method was used to assay the insecticidal activity. Healthy and pesticide-untreated cabbage leaves was selected to prepare 1 cm of leaf discs by diameter. Dip the leaf discs into the solution prepared with compound of this invention for 10 seconds and dry them in a cool […] environment. Then place them in 24-well plate with 3 discs per pore. Put 10 of Spodoptera litura into each pore, which was repeated by 3 times. The 24-well plate was placed in an illumination incubator and incubated with 14 hL: 10 hD illumination at 25° C. The dead number of Spodoptera litura was investigated on the 3rd day after treatment, and the mortality was calculated.

Data set [5] deals with Aphis craccivora. Put plainly: Insecticidal activity test against Aphis craccivora (broad bean leaf dip). The method, then: as §1
Cut a single leaf of broad bean with stem and insert it into a glass jar filled with water (capacity of 20 ml). Five adult Aphis craccivoras were seeded onto each leaf, and covered with plastic cups with holes. The adult aphids were removed after 24 hours. Before the experiment, the base number was investigated and the single leaf with more than 15 nymphs aphids was selected for the experiment. Dip leaf of broad bean with nymphs aphids into the solution of test compound 10s, take out and dry them in a cool environment, 3 parallel repeats. Place the glass jars on the shelf of observation room and covered with plastic cups with holes. 20-25° C. with 14 hL: 10 hD illumination. The number of Aphis craccivora death and alive was investigated on the 3rd day after treatment, and the mortality was calculated.

The mark [6] stands for this setting: 3rd day after treatment, read-out: insecticidal activity (mortality of Chilo suppressalis).
Setting [7] is: 72 h, 3 d, read-out: Mortality (%, 3 d) 1 ppm.
The mark [8] stands for this setting: 72 h, 3 d, read-out: Mortality (%, 3 d) 2 ppm.
[9] abbreviates: 24 h, read-out: Mortality (%) against Spodoptera frugiperda, 1 d.
[10] abbreviates: 48 h, read-out: Mortality (%) against Spodoptera frugiperda, 2 d.
Where [11] appears, read: 72 h, read-out: Mortality (%) against Spodoptera frugiperda, 3 d.
Setting [12] is: 24 h, 1 d, read-out: Mortality (%) 1 d.
Where [13] appears, read: 48 h, 2 d, read-out: Mortality (%) 2 d.
The mark [14] stands for this setting: 72 h, 3 d, read-out: Mortality (%) 3 d.

For the molecule `O=C(Nc1c(Br)cc(C(F)(C(F)(F)F)C(F)(F)F)cc1OC(F)F)c1cccc(N(CC2CC2)C(=O)c2ccccc2)c1F` [Compound 1, N-(2-bromo-4-(perfluoropropan-2-yl)-6-(difluoromethoxy)phenyl)-3-(N-(cyclopropylmethyl)benzamido)-2-fluorobenzamide], the values for the mortality at 1 ppm in data set [1], in data set [3] (setting [6]) and in data set [3] (setting [7]) were ≥ 90%, ≥ 90% and 96.7%, respectively. For the same molecule, in data set [2], the mortality at 0.04 ppm is ≥ 90%. In data set [3] (72 h, 3 d), the mortality at 0.5 ppm came out at 76.7%. In addition, the mortality at 2 ppm in data set [3] (setting [8]) amounted to 100%. For the same molecule, in data set [4], the mortality at 0.4 ppm was ≥ 90%.
On to `N#Cc1ccc(C(=O)N(CC2CC2)c2cccc(C(=O)Nc3c(Br)cc(C(F)(C(F)(F)F)C(F)(F)F)cc3OC(F)F)c2F)cc1` [Compound 14], for which, in data set [1], the “Mortality (%) against Spodoptera frugiperda, 1 d” value (“Mortality (%) … 1 d” for short) was 29.17%; the “Mortality (%) against Spodoptera frugiperda, 2 d” value (“Mortality (%) … 2 d” below) came out at 79.17%; the “Mortality (%) against Spodoptera frugiperda, 3 d” value (shortened to “Mortality (%) … 3 d”) was 95.83%.
On to `O=C(Nc1c(Br)cc(C(F)(C(F)(F)F)C(F)(F)F)cc1OC(F)F)c1cccc(N(CC2CC2)C(=O)c2ccc(F)cc2)c1F` [Compound 31, N-(2-bromo-6-(difluoromethoxy)-4-(perfluoropropan-2-yl)phenyl)-3-(N-(cyclopropylmethyl)-4-fluorobenzamido)-2-fluorobenzamide], for which the mortality at 40 ppm in data set [5] (Aphis craccivora, foliar, 40 ppm, 3rd day after treatment, read-out: insecticidal activity (mortality of Aphis craccivora)) was ≥ 90%. Moreover, the mortality at 0.1 ppm in data set [1] (setting [9]), in data set [1] (setting [10]) and in data set [1] (setting [11]) was 100% in each case. Moreover, the mortality at 1 ppm was ≥ 90% in data set [1], ≥ 90% in data set [3] (setting [6]) and 100% in data set [3] (setting [7]). Besides, the mortality at 0.04 ppm in data set [2] was ≥ 90%. Besides, the mortality at 0.01 ppm stood at 13.3% in data set [2] (setting [12]), 63.3% in data set [2] (setting [13]) and 70% in data set [2] (setting [14]). This molecule also displayed a mortality at 0.5 ppm in data set [3] (72 h, 3 d) of 83.3%. In data set [3] (setting [8]), the mortality at 2 ppm came out at 100%. Besides, the mortality at 0.4 ppm in data set [4] was ≥ 90%.
As to `O=C(Nc1c(Br)cc(C(F)(C(F)(F)F)C(F)(F)F)cc1OC(F)F)c1cccc(N(CC2CC2)C(=O)c2ccc(Cl)cc2)c1F` [Compound 44], in data set [1], the “Mortality (%) … 1 d” value is on record as 37.50%; the “Mortality (%) … 2 d” value was 62.50%; the “Mortality (%) … 3 d” value is listed as 91.67%.
In the case of `O=C(Nc1c(Br)cc(C(F)(C(F)(F)F)C(F)(F)F)cc1C(F)(F)F)c1cccc(N(CC2CC2)C(=O)c2ccncc2)c1F` [Compound 101], the “Mortality (%, 3 d) 1 ppm” value in data set [5] (1 ppm, 3 d) came out at 39.11%. Also, the “Mortality (%, 3 d) 10 ppm” value in data set [5] (10 ppm, 3 d) came to 83.26%. In addition, the “Mortality (%, 3 d) 40 ppm” value in data set [5] (40 ppm, 3 d) worked out at 100.00%.
`O=C(Nc1c(Br)cc(C(F)(C(F)(F)F)C(F)(F)F)cc1C(F)(F)F)c1cccc(N(CC2CC2)C(=O)c2ccc(F)nc2)c1F` [Compound 106, N-(3-((2-bromo-4-(perfluoropropan-2-yl)-6-(trifluoromethyl)phenyl)carbamoyl)-2-fluorophenyl)-N-(cyclopropylmethyl)-6-fluoronicotinamide]: the mortality at 0.1 ppm in data set [1] (setting [9]) worked out at 41.7%; in data set [1] (setting [10]), 62.5%; in data set [1] (setting [11]), 95.8%. Further, the mortality at 1 ppm in data set [1] and in data set [3] (setting [6]) was ≥ 90% in each case. For the same molecule, the mortality at 0.04 ppm in data set [2] was ≥ 90%. In data set [4], the mortality at 0.4 ppm is ≥ 90%.
As for `O=C(Nc1c(Br)cc(C(F)(C(F)(F)F)C(F)(F)F)cc1OC(F)F)c1cccc(N(CC2CC2)C(=O)c2ccnc(Cl)c2)c1F` [Compound 119], in data set [1], the “Mortality (%) … 1 d” value was 54.17%; the “Mortality (%) … 2 d” value amounted to 79.17%; the “Mortality (%) … 3 d” value stood at 91.67%.
Regarding `O=C(Nc1c(Br)cc(C(F)(C(F)(F)F)C(F)(F)F)cc1OC(F)F)c1cccc(N(CC2CC2)C(=O)c2ccnc(F)c2)c1F` [Compound 120], in data set [1], the “Mortality (%) … 1 d” value stood at 58.33%; the “Mortality (%) … 2 d” value is on record as 100%; the “Mortality (%) … 3 d” value was found to be 100%.
On to `CC(C1CC1)N(C(=O)c1ccnc(Cl)c1)c1cccc(C(=O)Nc2c(Br)cc(C(F)(C(F)(F)F)C(F)(F)F)cc2C(F)(F)F)c1F` (stereo not shown) [Compound 124, N-(3-((2-bromo-4-(perfluoropropan-2-yl)-6-(trifluoromethyl)phenyl)carbamoyl)-2-fluorophenyl)-2-chloro-N-(1-cyclopropylethyl)isonicotinamide], for which the mortality at 2 ppm in data set [3] (setting [6]) is ≥ 90%.
Take `CCN(C(=O)c1ccc(F)cc1)c1cccc(C(=O)Nc2c(Br)cc(C(F)(C(F)(F)F)C(F)(F)F)cc2OC(F)F)c1F` [KC1, reference compound]: the mortality at 0.01 ppm in data set [2] (setting [12]) is 6.67%; in data set [2] (setting [13]) it was 16.7%; in data set [2] (setting [14]) it was 20%.
In the case of `CCN(C(=O)c1ccncc1)c1cccc(C(=O)Nc2c(Br)cc(C(F)(C(F)(F)F)C(F)(F)F)cc2OC(F)F)c1F` [KC2, reference compound], the mortality at 0.1 ppm in data set [1] (setting [9]) was 0%; in data set [1] (setting [10]), 8.33%; in data set [1] (setting [11]), 20.8%.
For `O=C(Nc1c(Br)cc(C(F)(C(F)(F)F)C(F)(F)F)cc1OC(F)(F)F)c1cccc(N(CC2CC2)C(=O)c2ccccc2)c1F` [KC3, reference compound], the figures for the mortality at 0.1 ppm in data set [1] (setting [9]), in data set [1] (setting [10]) and in data set [1] (setting [11]) were 0%, 0% and 4.17%, respectively. In addition, in data set [3] (72 h, 3 d), the mortality at 0.5 ppm amounted to 20%. Further, the mortality at 1 ppm in data set [3] (setting [7]) was found to be 80%. Also, in data set [3] (setting [8]), the mortality at 2 ppm stood at 96.7%.
For the molecule `O=C(Nc1c(Br)cc(C(F)(C(F)(F)F)C(F)(F)F)cc1C(F)(F)F)c1cccc(N(CC2CC2)C(=O)c2ccc(F)cc2)c1F` [KC4, reference compound], in data set [5] (Aphis craccivora, foliar, 72 h, 1 ppm, 3 d), the mortality at 1 ppm is 0%. The molecule also registered a mortality at 10 ppm in data set [5] (Aphis craccivora, foliar, 72 h, 10 ppm, 3 d) of 47.1%. In addition, in data set [5] (Aphis craccivora, foliar, 72 h, 40 ppm, 3 d, read-out: Mortality (%, 3 d) 40 ppm), the mortality at 40 ppm worked out at 65.2%. This molecule also displayed a mortality at 0.04 ppm in data set [4] (72 h, 0.04 ppm, 3 d) of 8.83%. Further, the mortality at 0.1 ppm in data set [4] (72 h, 0.1 ppm, 3 d) is 75%.
